These results are taken from ChEMBL document CHEMBL1123891, “Antimalarial activity of 2-(substituted amino)-4,6-bis(trichloromethyl)-1,3,5-triazines and N-(chlorophenyl)-N'-[4-(substituted amino)-6-(trichloromethyl)-1,3,5-triazin-2-yl]guanidines” (1987).

Values joined by “and” are separate entries in the source; they are usually repeats but may differ in a detail not shown here. Equal values may be shown once.

The test system of experiment [1] is Gallus gallus. The experiment can be described thus: Mean survival time was determined against Plasmodium gallinaceum treated chicks after (subcutaneously) administration of 100 mg/kg. It is filed as functional. The note with it: route subcutaneous.
Experiment [2] has as its system Mus musculus. The experiment can be described thus: Mean survival time was determined against Plasmodium berghei treated mice (Mus musculus) after (subcutaneously) administration of 160 mg/kg. It is filed as functional. Further details: unit not given beside the values. The note with it: route subcutaneous.
For experiment [3], the system named is Mus musculus. Description: Mean survival time was determined against Plasmodium berghei treated mice (Mus musculus) after (subcutaneous) administration of 640 mg/kg. It counts as functional. Further details: unit not given beside the values.
For experiment [4], the species on record is Mus musculus. The experiment can be described thus: Dose required for 90% suppression of the parasitaemia in Plasmodium berghei treated mice (Mus musculus) relative to control was determined. It is filed as functional.
Experiment [5] relates to Mus musculus. Description: (§1) Mean survival time was determined against Plasmodium berghei treated mice (Mus musculus) after (subcutaneously) administration of 40 mg/kg. It is filed as functional. The note with it: route subcutaneous.
The subject of experiment [6] is Gallus gallus. Description: Mean survival time was determined against Plasmodium gallinaceum treated chicks after (subcutaneous) administration of 120 mg/kg. It is filed as functional.
Experiment [7] relates to Mus musculus. Description: Mean survival time was determined against Plasmodium berghei treated mice (Mus musculus) after (subcutaneous) administration of 160 mg/kg. It counts as functional. Further details: unit not given beside the values.
Experiment [8] deals with Mus musculus. Description: (§2) Mean survival time was determined against Plasmodium berghei treated mice (Mus musculus) after (subcutaneously) administration of 20 mg/kg. It counts as functional. Set-up: unit not given beside the values. The note with it: route subcutaneous.
Experiment [9] has as its system Mus musculus. The experiment can be described thus: Mean survival time was determined against Plasmodium berghei treated mice (Mus musculus) after (subcutaneous) administration of 320 mg/kg. It is filed as functional.
The subject of experiment [10] is Mus musculus. The description is as §1. The note with it: route subcutaneous. It counts as functional. Further details: unit not given beside the values.
In experiment [11] the test system is Mus musculus. Description: (§3) Mean survival time was determined against Plasmodium berghei treated mice (Mus musculus) after (subcutaneously) administration of 80 mg/kg. It counts as functional. The note with it: route subcutaneous. Further details: unit not given beside the values.
Experiment [12] deals with Gallus gallus. The experiment can be described thus: Mean survival time was determined against Plasmodium gallinaceum treated chicks after (subcutaneously) administration of 120 mg/kg. It is filed as functional. The note with it: route subcutaneous.
The subject of experiment [13] is Gallus gallus. Description: Mean survival time was determined against Plasmodium gallinaceum treated chicks after (subcutaneously) administration of 60 mg/kg. It counts as functional. The note with it: route subcutaneous.
Experiment [14] relates to Mus musculus. Description: (§4) Mean survival time was determined against Plasmodium berghei treated mice (Mus musculus) after (subcutaneously) administration of 320 mg/kg. It counts as functional. The note with it: route subcutaneous. Set-up: unit not given beside the values.
For experiment [15], the system named is Mus musculus. The experiment is described as §3. It counts as functional. The note with it: route subcutaneous.
For experiment [16], the system named is Mus musculus. Described as §2. It is filed as functional. The note with it: route subcutaneous.
The test system of experiment [17] is Gallus gallus. Description: Mean survival time was determined against Plasmodium gallinaceum treated chicks after (subcutaneously) administration of 240 mg/kg. It counts as functional. The note with it: route subcutaneous.
In experiment [18] the test system is Gallus gallus. Description: Mean survival time was determined against Plasmodium gallinaceum treated chicks after (subcutaneous) administration of 240 mg/kg. It counts as functional.
Experiment [19] concerns Mus musculus. Description: Mean survival time was determined against Plasmodium berghei treated mice (Mus musculus) after (subcutaneously) administration of 640 mg/kg. It counts as functional. The note with it: route subcutaneous.
The subject of experiment [20] is Mus musculus. The description is as §4. The note with it: route subcutaneous. It is filed as functional.
Experiment [21] has as its system Mus musculus. Description: Mean survival time was determined against Plasmodium berghei treated mice (Mus musculus) after (subcutaneous) administration of 20 mg/kg.

With `CN(C)CCCNc1nc(/N=C(\N)Nc2ccc(Cl)c(Cl)c2)nc(C(Cl)(Cl)Cl)n1`, the “Delta MST” value was 0.2 in experiment [1]; 12.3 and 12.6 in experiment [2] (160 mg/kg); 15.5 and 14.9 in [3] (640 mg/kg); 1.3 and 1.6 in experiment [5] (40 mg/kg). This compound also returned an SD90 in experiment [4] of 100 mg/kg.
Turning to `N=C(Nc1ccc(Cl)cc1)Nc1nc(NCCCN2CCCCC2)nc(C(Cl)(Cl)Cl)n1`, the “Delta MST” value in experiment [6] was 9.1; in experiment [3] it was 7.9 and 8.1; in experiment [7] (160 mg/kg), 3.1 and 3.9; in [8] it was 0.3; in experiment [9] it was 5.5; in experiment [10], 1.7 and 1.5. For the same compound, the “Delta MST” value in experiment [11] stood at 2.7. This compound came in with an SD90 in [4] of 208 mg/kg.
For `ClC(Cl)(Cl)c1nc(NCCCCCN2CCCC2)nc(C(Cl)(Cl)Cl)n1`, the “Delta MST” value in [12] was 4.6; in experiment [13] it was 1.2; in experiment [2], 2.3; in experiment [14], 8.6; in experiment [15], 0.4; in experiment [7], 3. Besides, the “Delta MST” value in experiment [16] was 0; in experiment [5] (40 mg/kg) it was 0.4 and 0.5. In experiment [4], this compound yielded an SD90 of 34 mg/kg.
Turning to `N=C(Nc1ccc(Cl)cc1)Nc1nc(NCCCCCN2CCCC2)nc(C(Cl)(Cl)Cl)n1`, the “Delta MST” value in experiment [6] is 0.7; in [3], 7.2 and 7; in [7] (160 mg/kg) it was 3.8 and 4.2; in experiment [8], 0.6; in experiment [9], 4; in experiment [10], 1 and 1.2. In addition, in experiment [11], the “Delta MST” value is 2.2. Also, in experiment [4], the SD90 was 145 mg/kg.
Turning to `CCN1CCCC(Nc2nc(/N=C(\N)Nc3ccc(Cl)cc3)nc(C(Cl)(Cl)Cl)n2)C1` (configuration not stated), the “Delta MST” value in experiment [2] (160 mg/kg) is 4.7 and 2.3; in experiment [14] it was 5.3; in [3] (640 mg/kg), 10.3 and 9.9; in experiment [15], 4.1; in [16] it was 0.3; in experiment [5] (40 mg/kg) it was 0.7 and 1.1. This compound returned an SD90 in experiment [4] of 97 mg/kg.
Turning to `CCN1CCCC(Nc2nc(C(Cl)(Cl)Cl)nc(C(Cl)(Cl)Cl)n2)C1` (configuration not stated), the “Delta MST” value is 1.6 in experiment [17], 2.8 in [2] and 0.2 in experiment [5]. For the same compound, the SD90 in experiment [4] stood at 91 mg/kg.
As for `N=C(Nc1ccc(Cl)cc1)Nc1nc(NCCCN2CCCCCC2)nc(C(Cl)(Cl)Cl)n1`, the “Delta MST” value was 18.7 in experiment [1]; 7.2 in experiment [18]; 7.5 and 4.7 in experiment [3]; 2.7 and 1.5 in [7] (160 mg/kg); 0.7 in experiment [8]; 4.5 in experiment [9]. The “Delta MST” value is 1.1 and 0.7 in experiment [10]; 1.7 in experiment [11]. This compound also registered an SD90 in experiment [4] of 240 mg/kg.
For `N=C(Nc1ccc(Cl)cc1)Nc1nc(NCCCCN2CCCC2)nc(C(Cl)(Cl)Cl)n1`, the “Delta MST” value in experiment [3] was 5.8 and 5.3; in experiment [7] (160 mg/kg), 3.8 and 4.8; in experiment [8], 0.2; in experiment [9], 4.8; in [10] it was 0.4 and 1; in experiment [11], 2.2. This compound came in with an SD90 in experiment [4] of 108 mg/kg.
Consider `ClC(Cl)(Cl)c1nc(NCCCCN2CCCC2)nc(C(Cl)(Cl)Cl)n1`, for which the “Delta MST” value was determined as 0.1 in [13]; 2.8 in experiment [2]; 4.2 in experiment [14]; 0.4 in experiment [15]; 2.1 in [7]; 0.2 in experiment [16]. Further, in [5] (40 mg/kg), the “Delta MST” value was 0.2 and 0.3. Also, the SD90 in experiment [4] turned out to be 80 mg/kg.
Consider `ClC(Cl)(Cl)c1nc(NCCCN2CCCC2)nc(C(Cl)(Cl)Cl)n1`, for which the “Delta MST” value in experiment [17] amounted to 0.3; in [2] it was 1; in [14], 1.6; in experiment [3] it was 3.8; in [15] it was 0.2; in experiment [16], 0. Further, the “Delta MST” value in [5] is recorded as 0. In experiment [4], this compound showed an SD90 of 86 mg/kg.
Turning to `N=C(Nc1ccc(Cl)cc1)Nc1nc(NCCCN2CCCC2)nc(C(Cl)(Cl)Cl)n1`, the “Delta MST” value was 11.7 in experiment [12]; 14.4 in experiment [17]; 3.7 and 2.3 in [2] (160 mg/kg); 10.1 and 9.9 in [19]; 1.9 in experiment [15]; 0.5 in experiment [16]. Also, the results for the “Delta MST” value in [20] and in experiment [5] were 7.5 and 0.5, respectively. In addition, the SD90 in [4] came to 235 mg/kg.
On to `CN(C)CCCNc1nc(/N=C(\N)Nc2ccc(Cl)cc2)nc(C(Cl)(Cl)Cl)n1`, for which the “Delta MST” value was 5.4 and 6.5 in [7] (160 mg/kg); 4.2 and 4.6 in [10].
In the case of `CN(C)CCCNc1nc(C(Cl)(Cl)Cl)nc(C(Cl)(Cl)Cl)n1`, the “Delta MST” value in experiment [17] is 0.3; in experiment [2] (160 mg/kg) it was 4 and 4.7; in [14], 6.8; in [3] (640 mg/kg), 16.3 and 17.7; in experiment [15] it was 2.2; in experiment [5] (40 mg/kg), 2 and 2.1. Moreover, the “Delta MST” value in experiment [21] stood at 1.2. Also, in [4], the SD90 worked out at 125 mg/kg.
